Measured values from ChEMBL document CHEMBL5291721, “A preclinical secondary pharmacology resource illuminates target-adverse drug reaction associations of marketed drugs” (Nat Commun, 2023).

Tests used:
Histamine H3 receptor = Histamine H3 receptor (Homo sapiens, UniProt Q9Y5N1)
[1] = target: T1, Muscarinic acetylcholine receptor M2 (Homo sapiens, UniProt P08172)
T1 sequence (P08172 whole entry): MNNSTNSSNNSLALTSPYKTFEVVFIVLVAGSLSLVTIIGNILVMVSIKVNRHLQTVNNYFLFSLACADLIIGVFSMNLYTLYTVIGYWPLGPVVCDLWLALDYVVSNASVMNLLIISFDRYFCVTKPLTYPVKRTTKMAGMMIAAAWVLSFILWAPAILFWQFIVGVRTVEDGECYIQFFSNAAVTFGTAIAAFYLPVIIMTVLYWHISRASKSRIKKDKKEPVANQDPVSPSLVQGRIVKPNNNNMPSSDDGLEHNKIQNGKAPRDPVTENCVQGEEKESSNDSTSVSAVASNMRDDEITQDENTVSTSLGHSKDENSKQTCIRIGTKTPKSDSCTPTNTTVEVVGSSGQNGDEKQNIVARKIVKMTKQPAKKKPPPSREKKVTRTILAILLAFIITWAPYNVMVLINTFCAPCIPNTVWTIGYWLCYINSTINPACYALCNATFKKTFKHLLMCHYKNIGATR

Estrogen receptor = target: T2, Estrogen receptor (Homo sapiens, UniProt P03372)
T2 sequence (P03372 whole entry): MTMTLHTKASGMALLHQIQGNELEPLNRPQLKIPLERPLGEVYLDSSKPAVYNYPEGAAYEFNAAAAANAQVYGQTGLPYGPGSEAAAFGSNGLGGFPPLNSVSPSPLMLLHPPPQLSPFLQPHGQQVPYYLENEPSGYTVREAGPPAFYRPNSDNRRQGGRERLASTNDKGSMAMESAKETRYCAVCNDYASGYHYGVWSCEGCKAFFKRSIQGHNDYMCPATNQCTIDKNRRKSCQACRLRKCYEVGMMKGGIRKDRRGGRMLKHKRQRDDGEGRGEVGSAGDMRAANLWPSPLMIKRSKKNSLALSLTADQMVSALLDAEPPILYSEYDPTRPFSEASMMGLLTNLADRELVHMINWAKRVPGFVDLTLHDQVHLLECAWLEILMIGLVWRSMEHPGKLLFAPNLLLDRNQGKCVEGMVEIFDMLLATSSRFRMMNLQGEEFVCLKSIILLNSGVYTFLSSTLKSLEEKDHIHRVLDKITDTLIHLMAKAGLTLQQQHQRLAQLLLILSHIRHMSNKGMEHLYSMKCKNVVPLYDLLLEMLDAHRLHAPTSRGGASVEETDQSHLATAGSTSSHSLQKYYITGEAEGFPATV

[2] = target: Voltage-gated inwardly rectifying potassium channel KCNH2 (Homo sapiens, UniProt Q12809); type: functional; conditions: read-out: AC50
[3] = target: T3, Prostaglandin G/H synthase 1 (Rattus norvegicus, UniProt Q63921); type: functional
T3 sequence (Q63921 whole entry): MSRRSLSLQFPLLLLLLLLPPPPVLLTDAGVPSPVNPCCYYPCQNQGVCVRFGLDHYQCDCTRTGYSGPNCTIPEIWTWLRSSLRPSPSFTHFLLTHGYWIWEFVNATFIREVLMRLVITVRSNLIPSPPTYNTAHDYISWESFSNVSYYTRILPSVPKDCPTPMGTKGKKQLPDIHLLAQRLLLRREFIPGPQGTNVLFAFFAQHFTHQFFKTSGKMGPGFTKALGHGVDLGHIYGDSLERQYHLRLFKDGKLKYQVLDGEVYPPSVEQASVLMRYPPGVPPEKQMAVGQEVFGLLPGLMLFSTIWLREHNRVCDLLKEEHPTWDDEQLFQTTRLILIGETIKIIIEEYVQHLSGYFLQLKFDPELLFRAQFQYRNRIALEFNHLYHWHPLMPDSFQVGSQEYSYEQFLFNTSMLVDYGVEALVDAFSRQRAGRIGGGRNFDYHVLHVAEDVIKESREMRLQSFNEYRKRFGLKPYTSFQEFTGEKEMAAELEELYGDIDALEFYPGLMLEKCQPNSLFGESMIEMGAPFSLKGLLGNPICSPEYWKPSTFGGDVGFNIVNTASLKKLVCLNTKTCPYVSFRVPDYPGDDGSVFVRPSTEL

Adenosine receptor A2a = Adenosine receptor A2a (Homo sapiens, UniProt P29274)
[4] = target: T4, Alpha-2C adrenergic receptor (Homo sapiens, UniProt P18825); type: functional
T4 sequence (P18825 whole entry): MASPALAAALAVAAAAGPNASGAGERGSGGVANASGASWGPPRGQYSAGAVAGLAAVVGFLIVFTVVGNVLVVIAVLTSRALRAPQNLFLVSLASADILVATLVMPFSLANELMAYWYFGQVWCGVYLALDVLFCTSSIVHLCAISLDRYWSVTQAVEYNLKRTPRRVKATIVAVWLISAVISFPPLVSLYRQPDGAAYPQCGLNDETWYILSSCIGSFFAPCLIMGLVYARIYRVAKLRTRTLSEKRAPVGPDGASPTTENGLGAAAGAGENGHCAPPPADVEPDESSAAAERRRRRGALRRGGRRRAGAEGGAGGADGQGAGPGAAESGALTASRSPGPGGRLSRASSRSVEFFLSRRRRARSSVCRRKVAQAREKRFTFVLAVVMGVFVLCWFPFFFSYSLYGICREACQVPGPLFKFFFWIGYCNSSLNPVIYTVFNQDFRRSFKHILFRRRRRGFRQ

[5] = target: Beta-2 adrenergic receptor (Homo sapiens, UniProt P07550); type: functional, cell-based
Vasopressin V1a receptor = Vasopressin V1a receptor (Homo sapiens, UniProt P37288)
[6] = target: T5, Neuropeptide Y receptor type 1 (Homo sapiens, UniProt P25929)
T5 sequence (P25929 whole entry): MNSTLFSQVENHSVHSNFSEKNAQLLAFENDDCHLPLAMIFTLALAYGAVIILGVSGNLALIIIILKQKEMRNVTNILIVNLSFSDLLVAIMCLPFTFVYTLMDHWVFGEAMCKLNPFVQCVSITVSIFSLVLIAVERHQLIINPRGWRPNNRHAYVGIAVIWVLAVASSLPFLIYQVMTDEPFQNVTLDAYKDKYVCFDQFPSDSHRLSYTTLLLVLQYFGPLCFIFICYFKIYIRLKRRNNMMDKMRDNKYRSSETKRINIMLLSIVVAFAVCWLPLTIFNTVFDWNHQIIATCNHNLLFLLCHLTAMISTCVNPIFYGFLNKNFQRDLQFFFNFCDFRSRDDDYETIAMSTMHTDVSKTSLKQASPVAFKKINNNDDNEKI

[7] = target: Gamma-aminobutyric acid receptor subunit alpha-1 (Rattus norvegicus, UniProt P62813)
[8] = target: Glutamate receptor ionotropic, NMDA 1 (Rattus norvegicus, UniProt P35439)
Note: assay procedure not described here.

Histamine H3 receptor, sequence (Q9Y5N1 whole entry): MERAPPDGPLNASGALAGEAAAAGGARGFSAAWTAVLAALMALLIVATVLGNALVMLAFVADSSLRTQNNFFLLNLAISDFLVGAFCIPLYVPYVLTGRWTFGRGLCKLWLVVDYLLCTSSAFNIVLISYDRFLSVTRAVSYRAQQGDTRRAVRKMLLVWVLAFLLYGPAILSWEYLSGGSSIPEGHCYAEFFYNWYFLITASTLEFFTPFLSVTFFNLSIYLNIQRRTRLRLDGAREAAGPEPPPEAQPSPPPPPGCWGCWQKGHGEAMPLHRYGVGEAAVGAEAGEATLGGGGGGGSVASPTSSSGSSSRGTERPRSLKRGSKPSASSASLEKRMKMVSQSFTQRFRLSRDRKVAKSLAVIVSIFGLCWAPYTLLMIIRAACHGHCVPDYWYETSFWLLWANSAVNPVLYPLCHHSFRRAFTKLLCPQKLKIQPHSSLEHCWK
Gamma-aminobutyric acid receptor subunit alpha-1, sequence (P62813 whole entry): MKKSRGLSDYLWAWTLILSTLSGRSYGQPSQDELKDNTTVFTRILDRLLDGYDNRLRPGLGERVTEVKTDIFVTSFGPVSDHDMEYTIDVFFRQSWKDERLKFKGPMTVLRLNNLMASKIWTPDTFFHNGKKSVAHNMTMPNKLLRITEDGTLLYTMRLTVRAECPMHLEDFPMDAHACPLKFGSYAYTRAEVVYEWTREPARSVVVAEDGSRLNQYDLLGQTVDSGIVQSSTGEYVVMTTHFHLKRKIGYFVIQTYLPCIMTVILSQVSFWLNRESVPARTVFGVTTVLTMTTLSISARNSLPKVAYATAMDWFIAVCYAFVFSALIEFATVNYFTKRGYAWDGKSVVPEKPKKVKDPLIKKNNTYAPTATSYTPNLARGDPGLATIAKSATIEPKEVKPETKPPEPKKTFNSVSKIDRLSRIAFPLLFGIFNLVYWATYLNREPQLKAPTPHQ
Voltage-gated inwardly rectifying potassium channel KCNH2, sequence (Q12809 whole entry): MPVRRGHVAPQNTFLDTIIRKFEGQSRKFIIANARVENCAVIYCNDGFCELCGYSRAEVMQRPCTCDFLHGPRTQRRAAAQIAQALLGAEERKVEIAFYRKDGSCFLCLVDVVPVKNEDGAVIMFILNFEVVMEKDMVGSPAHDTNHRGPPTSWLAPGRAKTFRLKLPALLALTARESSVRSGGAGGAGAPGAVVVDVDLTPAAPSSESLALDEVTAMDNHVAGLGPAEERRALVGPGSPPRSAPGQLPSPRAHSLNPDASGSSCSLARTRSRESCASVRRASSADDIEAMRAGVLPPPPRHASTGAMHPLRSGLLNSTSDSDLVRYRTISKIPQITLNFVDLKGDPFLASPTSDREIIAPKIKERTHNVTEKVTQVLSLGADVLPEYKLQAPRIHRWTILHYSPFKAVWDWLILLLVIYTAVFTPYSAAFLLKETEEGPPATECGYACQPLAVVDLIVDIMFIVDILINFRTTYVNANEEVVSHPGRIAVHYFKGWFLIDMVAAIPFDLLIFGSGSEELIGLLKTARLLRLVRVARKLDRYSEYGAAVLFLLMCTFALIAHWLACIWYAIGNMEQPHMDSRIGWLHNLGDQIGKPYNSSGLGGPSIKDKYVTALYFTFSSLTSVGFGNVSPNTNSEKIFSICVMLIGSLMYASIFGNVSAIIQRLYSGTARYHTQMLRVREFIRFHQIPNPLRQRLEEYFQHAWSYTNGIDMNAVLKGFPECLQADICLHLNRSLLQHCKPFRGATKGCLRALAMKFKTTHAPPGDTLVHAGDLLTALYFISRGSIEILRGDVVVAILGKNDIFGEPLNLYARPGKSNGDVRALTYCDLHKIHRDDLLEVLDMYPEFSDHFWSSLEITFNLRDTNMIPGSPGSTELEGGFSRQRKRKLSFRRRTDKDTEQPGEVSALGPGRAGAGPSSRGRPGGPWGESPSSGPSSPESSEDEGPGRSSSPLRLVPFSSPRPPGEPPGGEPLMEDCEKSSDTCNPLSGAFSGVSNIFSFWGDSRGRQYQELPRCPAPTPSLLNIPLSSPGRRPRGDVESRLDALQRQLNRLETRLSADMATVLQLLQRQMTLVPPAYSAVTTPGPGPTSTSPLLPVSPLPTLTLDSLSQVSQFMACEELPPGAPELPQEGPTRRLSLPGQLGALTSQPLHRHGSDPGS
Vasopressin V1a receptor, sequence (P37288 whole entry): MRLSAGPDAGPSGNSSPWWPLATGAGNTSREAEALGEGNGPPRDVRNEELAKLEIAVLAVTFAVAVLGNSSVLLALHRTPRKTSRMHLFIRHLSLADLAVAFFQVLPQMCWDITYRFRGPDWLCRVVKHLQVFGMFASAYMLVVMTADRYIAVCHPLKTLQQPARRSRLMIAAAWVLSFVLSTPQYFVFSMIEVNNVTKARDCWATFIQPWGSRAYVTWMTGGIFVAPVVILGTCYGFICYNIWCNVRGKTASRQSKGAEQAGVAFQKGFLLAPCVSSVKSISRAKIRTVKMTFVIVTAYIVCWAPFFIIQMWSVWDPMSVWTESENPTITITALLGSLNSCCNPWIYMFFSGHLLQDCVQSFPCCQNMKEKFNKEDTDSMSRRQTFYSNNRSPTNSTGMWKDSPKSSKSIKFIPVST
Adenosine receptor A2a, sequence (P29274 whole entry): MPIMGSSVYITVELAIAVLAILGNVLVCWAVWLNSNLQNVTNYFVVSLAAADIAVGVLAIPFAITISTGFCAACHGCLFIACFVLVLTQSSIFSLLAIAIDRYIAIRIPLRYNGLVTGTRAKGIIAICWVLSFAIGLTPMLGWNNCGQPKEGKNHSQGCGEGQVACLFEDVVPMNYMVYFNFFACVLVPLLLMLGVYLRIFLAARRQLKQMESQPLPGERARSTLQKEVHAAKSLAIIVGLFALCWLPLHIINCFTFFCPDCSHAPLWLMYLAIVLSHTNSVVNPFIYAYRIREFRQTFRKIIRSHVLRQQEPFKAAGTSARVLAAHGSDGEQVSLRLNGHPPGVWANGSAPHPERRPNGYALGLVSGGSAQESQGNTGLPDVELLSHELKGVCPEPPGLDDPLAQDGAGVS
Beta-2 adrenergic receptor, sequence (P07550 whole entry): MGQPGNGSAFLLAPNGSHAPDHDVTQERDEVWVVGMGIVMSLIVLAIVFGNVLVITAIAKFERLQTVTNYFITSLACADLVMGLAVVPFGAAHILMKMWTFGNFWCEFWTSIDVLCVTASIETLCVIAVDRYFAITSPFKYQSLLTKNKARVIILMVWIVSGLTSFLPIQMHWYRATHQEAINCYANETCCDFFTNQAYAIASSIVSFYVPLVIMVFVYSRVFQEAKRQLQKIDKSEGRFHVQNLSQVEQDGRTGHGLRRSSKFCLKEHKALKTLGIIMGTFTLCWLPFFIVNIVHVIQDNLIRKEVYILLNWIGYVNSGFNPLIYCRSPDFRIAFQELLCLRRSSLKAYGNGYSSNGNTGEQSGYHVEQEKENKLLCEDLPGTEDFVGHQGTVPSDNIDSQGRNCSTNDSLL

Row | Compound | AC50 (Histamine H3 receptor) [µM] | AC50 [1] [µM] | AC50 (Estrogen receptor) [µM] | AC50 [2] [µM] | AC50 [3] [µM] | AC50 (Adenosine receptor A2a) [µM] | AC50 [4] [µM] | AC50 [5] [µM] | AC50 (Vasopressin V1a receptor) [µM] | AC50 [6] [µM] | AC50 [7] [µM] | AC50 [8] [µM]
1 | O=C(O)COc1nn(Cc2ccccc2)c2ccccc12 [BENDAZAC] | > 30 | > 30 | > 30 | > 30 |  |  |  |  |  |  |  | 
2 | Cc1ccc([C@@H]2O[C@H](CO)[C@@H](O)[C@H](O)[C@H]2O)cc1Cc1ccc(-c2ccc(F)cc2)s1 [CANAGLIFLOZIN ANHYDROUS] | > 30 | > 30 | > 30 | > 30 |  |  |  |  |  |  |  | 
3 | O=C(O)CCCc1ccc(N(CCCl)CCCl)cc1 [CHLORAMBUCIL] | > 30 | > 30 | > 30 | > 30 |  |  |  |  |  |  |  | 
4 | O=C(O)c1cc(=O)c2ccccc2o1 [CHROMOCARB] | > 30 | > 30 | > 30 | > 30 |  |  |  |  |  |  |  | 
5 | CN(CC(=O)O)C(=N)N [CREATINE] | > 30 | > 30 | > 30 | > 30 |  |  |  |  |  |  |  | 
6 | Cn1c(=O)c2c(ncn2CC(O)CO)n(C)c1=O (stereo not given) [DYPHYLLINE] | > 30 | > 30 | > 30 | > 30 |  |  |  |  |  |  |  | 
7 | C[C@]12CC[C@@H]3c4ccc(O)cc4CC[C@H]3[C@@H]1CC[C@@H]2OC(=O)CCC1CCCC1 [ESTRADIOL CYPIONATE] | > 30 | > 30 | 0.379 | > 30 |  |  |  |  |  |  |  | 
8 | CC1(C)O[C@@H]2C[C@H]3[C@@H]4C[C@H](F)C5=CC(=O)C=C[C@]5(C)[C@H]4[C@@H](O)C[C@]3(C)[C@]2(C(=O)CO)O1 [FLUNISOLIDE] |  |  |  | > 30 | > 30 | > 30 | > 30 | > 30 |  |  |  | 
9 | CC1(C)O[C@@H]2C[C@H]3[C@@H]4CCC5=CC(=O)CC[C@]5(C)[C@@]4(F)[C@@H](O)C[C@]3(C)[C@]2(C(=O)CCl)O1 [HALCINONIDE] | > 30 | > 30 | > 30 | > 30 |  |  |  |  |  |  |  | 
10 | C[C@]12CCC(=O)C=C1CC[C@@H]1[C@@H]2[C@@H](O)C[C@@]2(C)[C@H]1CC[C@]2(O)C(=O)COC(=O)CCC(=O)O [HYDROCORTISONE HEMISUCCINATE ANHYDROUS] | > 30 | > 30 | > 30 | > 30 |  |  |  |  |  |  |  | 
11 | N=C(N)NCc1cccc([123I])c1 [IOBENGUANE I 123] | > 30 | > 30 | > 30 | > 30 |  |  |  |  |  |  |  | 
12 | C=C1c2c(Cl)ccc(O)c2C(=O)C2=C(O)[C@]3(O)C(=O)C(C(N)=O)=C(O)[C@@H](N(C)C)[C@@H]3[C@@H](O)[C@H]12 [MECLOCYCLINE] | > 30 | > 30 | > 30 | > 30 |  |  |  |  |  |  |  | 
13 | Cc1cc2c(OCC(O)CNC(C)C)cccc2[nH]1 (stereo not given) [MEPINDOLOL] | > 30 | > 30 | > 30 | > 30 |  |  |  |  |  |  |  | 
14 | CC(=O)/N=c1/sc(S(N)(=O)=O)nn1C [METHAZOLAMIDE] | > 30 | > 30 | > 30 | > 30 | > 10 | > 10 | > 10 |  | > 10 | > 10 | > 10 | > 10
15 | CCOc1cc(N)c(Cl)cc1C(=O)NCC1CN(Cc2ccc(F)cc2)CCO1 (stereo not given) [MOSAPRIDE] | > 30 | > 30 | > 30 | > 30 |  |  |  |  |  |  |  | 
16 | CCOc1ccc2ccccc2c1C(=O)N[C@@H]1C(=O)N2[C@@H]1SC(C)(C)[C@@H]2C(=O)O [NAFCILLIN] | > 30 | > 30 | > 30 | > 30 |  |  |  |  |  |  |  | 
17 | CC(=O)Oc1ccccc1C(=O)Nc1ncc([N+](=O)[O-])s1 [NITAZOXANIDE] | > 30 | > 30 | > 30 |  | 0.0031 | 8.8 |  |  | 17 | 17 | > 30 | > 30
18 | CCCCCCCCCCC[C@@H](C[C@@H]1OC(=O)[C@H]1CCCCCC)OC(=O)[C@H](CC(C)C)NC=O [ORLISTAT] | > 30 | > 30 | > 30 | > 30 |  |  |  |  |  |  |  | 
19 | O=C1[C@H]2CCCC[C@H]2C(=O)N1CCCCN1CCN(c2nsc3ccccc23)CC1 [PEROSPIRONE] | > 30 | 7.34 | > 30 | 2.3 |  |  |  |  |  |  |  | 
20 | CC(C)(C)C(=O)NCCCC(=O)O [PIVAGABINE] | > 30 | > 30 | > 30 | > 30 |  |  |  |  |  |  |  | 
21 | CC(C)[N+](C)(CCOC(=O)C1c2ccccc2Oc2ccccc21)C(C)C [PROPANTHELINE] | > 30 | 0.003 | > 30 | 2 |  |  |  |  |  |  |  | 
22 | NC(=O)NS(=O)(=O)c1ccc(N)cc1 [SULFACARBAMIDE] | > 30 | > 30 | > 30 | > 30 |  |  |  |  |  |  |  | 
23 | CCCCCCCCNC(C)C(O)c1ccc(SC(C)C)cc1 (stereo not given) [SULOCTIDIL] | 27.4 | 3.41 | 16.7 | 0.43 |  |  |  |  |  |  |  | 
24 | CC1(C)O[C@@H]2[C@@H](CO[C@@]3(COS(N)(=O)=O)OC(C)(C)O[C@@H]23)O1 [TOPIRAMATE] | > 30 | > 30 | > 30 | > 30 | > 30 | > 30 | > 10 |  | > 10 | > 30 | > 10 | > 10
25 | NCCc1ccc(O)cc1 [TYRAMINE] | > 30 | > 30 | > 30 | > 30 |  |  |  |  |  |  |  | 
